Test results from patent US11291719B2, “Methods and compositions for modulating Akt3” (Augusta University Research Institute, Inc., priority 2016, dated 2022).

What was measured:
mouse nTregs cells = assay: Suppressive function of mouse nTregs in vitro; format: cell-based; conditions: nTreg to Tconv ratios 0:1 to 3:1
Text: FIGS. 16A-16L is a set of histograms showing the suppressive function of untreated and mJJ64A treated nTregs. The ratio of nTreg to Tconv cells is 0:1, 0.5:1, 1:1, 2:1, and 3:1.

human iTregs = assay: Induction and viability of human iTregs; format: cell-based
Text: FIG. 11A is a bar graph showing the percent of live human iTregs in cells treated with various concentrations of mJJ64A. The X-axis represents treatment group and the Y-axis represents percent of live cells. FIG. 11B is a bar graph showing the percent of FoxP3^+CD4^+ cells in human iTregs treated with various concentrations of mJJ64A. The X-axis represents treatment group and the Y-axis represents percent of FoxP3^+CD4^+ cells. FIG. 11C is a bar graph showing the percent of TGFβ^+ expressing cells in human iTregs treated with various concentrations of mJJ64A. The X-axis represents treatment group and the Y-axis represents percent of TGFβ^+ expressing cells.

IL-10 = IL-10 production by nTregs; format: cell-based; conditions: percent IL-10+ FoxP3+ cells
Text: FIG. 17 is a bar graph representing the percent of IL-10^+ FoxP3^+ cells in nTregs treated with various concentrations of mJJ64A.

iTregs = assay: Proliferation of activated iTregs; format: cell-based; conditions: TGF-β induced
Text: FIGS. 13A-13H show histograms representing proliferation of activated iTregs induced with TGF-β and treated with various concentrations of mJJ64A. FIG. 13I is a bar graph showing percent proliferation of iTregs treated with various concentrations of mJJ64A. The X-axis represents concentration of mJJ64A. The Y-axis represents percent proliferation. FIG. 13J is a bar graph showing the percent of live cells in iTregs treated with various concentrations of mJJ64A. The X axis represents treatment and the Y axis represents percentage of live cells.

FoxP3 = assay: Western blot of FoxP3 in Tconv cells during iTreg induction; format: cell-based; conditions: TGF-β induced
Text: FIG. 12 is a western blot showing the expression of FoxP3, pAkt3, Akt3, pAkt1, and Akt1 in activated Tconv cells induced with TGF-β and treated with various concentrations of mJJ64A.

Tregs [1] = assay: Percent of Tregs in Rag-/- mice; format: in vivo, mouse; conditions: compared to untreated
Text: FIG. 22A is a bar graph showing the number of CD4^+ T cells per 10^6 live cells in the spleen of WT, UT, iTreg, mJJ64A, and mJJ64A treated iTreg treated Rag^−/− mice. The X-axis represents treatment group and the Y-axis represents number of CD4^+ cells per 10^6 live cells. FIG. 22B is a bar graph showing the percent of FoxP3^+ cells per CD4^+ T cells in the spleen of WT, UT, iTreg, mJJ64A, and mJJ64A treated iTreg treated Rag^−/− mice. The X-axis represents treatment group and the Y-axis represents number of FoxP3^+ cells per CD4^+ cells. FIG. 22C is a bar graph showing the percent of FoxP3^− cells per CD4^+ T cells in the spleen of WT, UT, iTreg, mJJ64A, and mJJ64A treated iTreg treated Rag^−/− mice. The X-axis represents treatment group and the Y-axis represents number of FoxP3^− cells per CD4^+ cells. FIG. 22D is a bar graph showing the number of CD4^+ T cells per 10^6 live cells in the lymph node of WT, UT, iTreg, mJJ64A, and mJJ64A treated iTreg treated Rag^−/− mice. The X-axis represents treatment group and the Y-axis represents number of CD4^+ cells per 10^6 live cells. FIG. 22E is a bar graph showing the percent of FoxP3^+ cells per CD4^+ T cells in the lymph node of WT, UT, iTreg, mJJ64A, and mJJ64A treated iTreg treated Rag^−/− mice. The X-axis represents treatment group and the Y-axis represents number of FoxP3^+ cells per CD4^+ cells. […]

[2] = system: non-Treg CD4 and CD8 T cells; assay: Proliferation of non-Treg CD4 and CD8 T cells; format: cell-based; conditions: data not shown
Tregs [3] = assay: Percent of Tregs in EAE mice; format: in vivo, mouse; conditions: compared to untreated
Text: FIGS. 25A-251 are bar graphs showing the percent of FoxP3^+ cells per CD4^+ T cells, FoxP3^− cells per CD4^+ T cells, and ROR^+ cells per CD4^+ T cells in the spleen (FIG. 25A-25C), blood (FIG. 25D-25F), and brain (FIG. 25G-251) of UT, iTreg, mJJ64A-3, mJJ64A-6 and mJJ64A-10 treated EAE mice. The X-axis represents treatment group and the Y-axis represents number of FoxP3^+ cells, FoxP3^−, or ROR^+ cells per CD4^+ cells.

N#Cc1ccc2nccc(Nc3ccc(C(=O)Nc4ccc(Nc5ccncc5)cc4)cc3)c2c1 [Compound 2]
suppressive function of mouse nTregs cells in vitro (mouse nTregs cells): increased | induction of human iTregs (human iTregs; percent FoxP3+CD4+ and TGFβ+ cells): induced | cell viability of human iTregs (human iTregs; percent of live cells): did not affect | IL-10 production by nTregs (IL-10): increased | proliferation of iTregs (iTregs): increased | expression of FoxP3 in Tconv cells during iTreg induction (FoxP3): increased | percent of Tregs in the spleen and mesenteric lymph nodes (Tregs [1]): increased | proliferation of non-Treg CD4 and CD8 T cells [2]: not | percent of Tregs in the spleen, blood, and brain (Tregs [3]): increased
